Measurements from ChEMBL document CHEMBL3991601, “The target landscape of clinical kinase drugs” (Science, 2017).
The source made the active and inactive calls.

Tests used:
[1] = molecular target: Tyrosine-protein kinase ABL2 (Homo sapiens, UniProt P42684)
[2] = molecular target: T1, Peroxisomal acyl-coenzyme A oxidase 1 (Homo sapiens, UniProt Q15067)
T1 sequence (Q15067 whole entry): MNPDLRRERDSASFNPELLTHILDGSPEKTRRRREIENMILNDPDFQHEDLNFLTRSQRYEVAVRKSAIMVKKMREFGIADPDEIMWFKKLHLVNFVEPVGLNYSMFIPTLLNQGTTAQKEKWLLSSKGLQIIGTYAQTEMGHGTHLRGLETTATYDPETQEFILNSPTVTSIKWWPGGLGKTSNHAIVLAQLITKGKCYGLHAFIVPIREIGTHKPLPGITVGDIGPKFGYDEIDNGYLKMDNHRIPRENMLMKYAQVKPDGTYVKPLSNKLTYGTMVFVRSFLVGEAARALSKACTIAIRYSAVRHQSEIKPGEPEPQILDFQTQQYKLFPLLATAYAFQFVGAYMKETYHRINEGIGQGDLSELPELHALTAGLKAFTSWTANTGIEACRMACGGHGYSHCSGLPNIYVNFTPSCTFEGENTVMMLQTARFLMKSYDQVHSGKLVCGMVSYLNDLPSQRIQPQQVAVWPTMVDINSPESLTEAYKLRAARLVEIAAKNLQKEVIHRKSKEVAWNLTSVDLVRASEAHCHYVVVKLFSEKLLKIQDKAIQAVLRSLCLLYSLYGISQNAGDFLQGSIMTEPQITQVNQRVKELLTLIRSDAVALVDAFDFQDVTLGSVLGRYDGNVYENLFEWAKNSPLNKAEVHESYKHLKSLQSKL

[3] = molecular target: RAC-alpha serine/threonine-protein kinase (Homo sapiens, UniProt P31749)
Chain of RAC-alpha serine/threonine-protein kinase (P31749 whole entry): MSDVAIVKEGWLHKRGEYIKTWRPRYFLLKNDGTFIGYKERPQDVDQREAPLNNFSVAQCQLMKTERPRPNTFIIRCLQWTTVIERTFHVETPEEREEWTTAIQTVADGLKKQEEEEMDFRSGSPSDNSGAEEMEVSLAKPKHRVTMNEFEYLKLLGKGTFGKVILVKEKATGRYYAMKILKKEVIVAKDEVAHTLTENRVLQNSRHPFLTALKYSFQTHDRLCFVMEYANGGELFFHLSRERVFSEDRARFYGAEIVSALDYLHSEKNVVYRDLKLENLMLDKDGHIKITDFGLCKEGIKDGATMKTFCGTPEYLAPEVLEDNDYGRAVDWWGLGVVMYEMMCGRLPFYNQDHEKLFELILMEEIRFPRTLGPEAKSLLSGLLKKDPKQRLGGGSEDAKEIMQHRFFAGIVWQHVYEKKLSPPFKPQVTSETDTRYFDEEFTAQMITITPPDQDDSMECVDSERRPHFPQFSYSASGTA

[4] = molecular target: Bone morphogenetic protein receptor type-1A (Homo sapiens, UniProt P36894)
Chain of Bone morphogenetic protein receptor type-1A (P36894 whole entry): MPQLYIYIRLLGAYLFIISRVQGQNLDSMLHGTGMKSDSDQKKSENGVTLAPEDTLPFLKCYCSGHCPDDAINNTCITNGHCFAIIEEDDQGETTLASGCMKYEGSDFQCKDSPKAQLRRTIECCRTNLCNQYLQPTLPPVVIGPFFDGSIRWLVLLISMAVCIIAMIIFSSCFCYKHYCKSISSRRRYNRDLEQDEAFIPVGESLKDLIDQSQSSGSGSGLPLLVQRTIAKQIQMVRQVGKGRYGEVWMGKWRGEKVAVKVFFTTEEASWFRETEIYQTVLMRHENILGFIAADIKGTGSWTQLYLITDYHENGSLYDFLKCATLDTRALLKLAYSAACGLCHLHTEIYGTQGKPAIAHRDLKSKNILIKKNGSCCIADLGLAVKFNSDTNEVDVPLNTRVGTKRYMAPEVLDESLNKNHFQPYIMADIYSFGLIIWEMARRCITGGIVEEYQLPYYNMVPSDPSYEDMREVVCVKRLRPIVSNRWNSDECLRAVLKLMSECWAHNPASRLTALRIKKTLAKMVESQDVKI

[5] = molecular target: Calcium/calmodulin-dependent protein kinase type II subunit delta (Homo sapiens, UniProt Q13557)
Chain of Calcium/calmodulin-dependent protein kinase type II subunit delta (Q13557 whole entry, canonical isoform): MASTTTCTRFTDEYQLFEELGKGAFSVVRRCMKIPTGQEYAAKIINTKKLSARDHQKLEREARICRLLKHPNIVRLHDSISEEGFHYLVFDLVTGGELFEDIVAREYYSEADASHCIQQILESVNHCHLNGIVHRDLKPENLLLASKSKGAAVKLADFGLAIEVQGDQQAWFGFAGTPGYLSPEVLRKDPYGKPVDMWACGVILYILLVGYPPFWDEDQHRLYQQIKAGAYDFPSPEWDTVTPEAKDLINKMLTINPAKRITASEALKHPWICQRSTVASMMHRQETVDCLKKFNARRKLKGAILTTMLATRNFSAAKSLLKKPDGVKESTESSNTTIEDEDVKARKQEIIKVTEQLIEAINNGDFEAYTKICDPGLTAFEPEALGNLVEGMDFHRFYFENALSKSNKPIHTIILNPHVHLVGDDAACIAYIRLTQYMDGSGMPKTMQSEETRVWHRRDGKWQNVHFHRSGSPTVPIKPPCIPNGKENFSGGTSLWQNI

[6] = molecular target: Casein kinase I isoform delta (Homo sapiens, UniProt P48730)
Chain of Casein kinase I isoform delta (P48730 whole entry, canonical isoform): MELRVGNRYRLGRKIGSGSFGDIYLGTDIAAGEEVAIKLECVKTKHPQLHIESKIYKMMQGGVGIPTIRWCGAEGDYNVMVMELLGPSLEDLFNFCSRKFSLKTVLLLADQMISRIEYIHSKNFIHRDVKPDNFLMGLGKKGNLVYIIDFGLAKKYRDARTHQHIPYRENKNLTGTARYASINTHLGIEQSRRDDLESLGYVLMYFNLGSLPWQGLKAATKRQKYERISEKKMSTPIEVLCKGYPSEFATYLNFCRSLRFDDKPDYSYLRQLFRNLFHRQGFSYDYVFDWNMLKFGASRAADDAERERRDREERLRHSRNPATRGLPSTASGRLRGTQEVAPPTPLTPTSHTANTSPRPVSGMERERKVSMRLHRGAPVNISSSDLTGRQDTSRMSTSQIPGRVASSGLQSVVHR

[7] = molecular target: T2, Probable ATP-dependent RNA helicase DDX6 (Homo sapiens, UniProt P26196)
T2 sequence (P26196 whole entry): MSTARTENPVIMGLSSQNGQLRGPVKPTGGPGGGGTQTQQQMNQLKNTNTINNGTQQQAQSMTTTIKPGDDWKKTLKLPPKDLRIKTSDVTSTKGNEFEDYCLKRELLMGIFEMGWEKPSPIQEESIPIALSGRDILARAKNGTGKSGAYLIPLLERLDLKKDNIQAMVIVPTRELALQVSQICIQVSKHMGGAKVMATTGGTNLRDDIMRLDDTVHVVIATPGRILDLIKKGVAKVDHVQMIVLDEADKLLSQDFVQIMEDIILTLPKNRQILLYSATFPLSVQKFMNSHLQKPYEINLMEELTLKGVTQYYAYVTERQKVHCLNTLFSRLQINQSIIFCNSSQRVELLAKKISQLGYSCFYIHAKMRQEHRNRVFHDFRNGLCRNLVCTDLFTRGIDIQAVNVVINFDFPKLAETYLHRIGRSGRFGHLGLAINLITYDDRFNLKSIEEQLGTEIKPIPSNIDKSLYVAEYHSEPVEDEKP

[8] = molecular target: T3, Serine/threonine-protein kinase LATS1 (Homo sapiens, UniProt O95835)
T3 sequence (O95835 whole entry): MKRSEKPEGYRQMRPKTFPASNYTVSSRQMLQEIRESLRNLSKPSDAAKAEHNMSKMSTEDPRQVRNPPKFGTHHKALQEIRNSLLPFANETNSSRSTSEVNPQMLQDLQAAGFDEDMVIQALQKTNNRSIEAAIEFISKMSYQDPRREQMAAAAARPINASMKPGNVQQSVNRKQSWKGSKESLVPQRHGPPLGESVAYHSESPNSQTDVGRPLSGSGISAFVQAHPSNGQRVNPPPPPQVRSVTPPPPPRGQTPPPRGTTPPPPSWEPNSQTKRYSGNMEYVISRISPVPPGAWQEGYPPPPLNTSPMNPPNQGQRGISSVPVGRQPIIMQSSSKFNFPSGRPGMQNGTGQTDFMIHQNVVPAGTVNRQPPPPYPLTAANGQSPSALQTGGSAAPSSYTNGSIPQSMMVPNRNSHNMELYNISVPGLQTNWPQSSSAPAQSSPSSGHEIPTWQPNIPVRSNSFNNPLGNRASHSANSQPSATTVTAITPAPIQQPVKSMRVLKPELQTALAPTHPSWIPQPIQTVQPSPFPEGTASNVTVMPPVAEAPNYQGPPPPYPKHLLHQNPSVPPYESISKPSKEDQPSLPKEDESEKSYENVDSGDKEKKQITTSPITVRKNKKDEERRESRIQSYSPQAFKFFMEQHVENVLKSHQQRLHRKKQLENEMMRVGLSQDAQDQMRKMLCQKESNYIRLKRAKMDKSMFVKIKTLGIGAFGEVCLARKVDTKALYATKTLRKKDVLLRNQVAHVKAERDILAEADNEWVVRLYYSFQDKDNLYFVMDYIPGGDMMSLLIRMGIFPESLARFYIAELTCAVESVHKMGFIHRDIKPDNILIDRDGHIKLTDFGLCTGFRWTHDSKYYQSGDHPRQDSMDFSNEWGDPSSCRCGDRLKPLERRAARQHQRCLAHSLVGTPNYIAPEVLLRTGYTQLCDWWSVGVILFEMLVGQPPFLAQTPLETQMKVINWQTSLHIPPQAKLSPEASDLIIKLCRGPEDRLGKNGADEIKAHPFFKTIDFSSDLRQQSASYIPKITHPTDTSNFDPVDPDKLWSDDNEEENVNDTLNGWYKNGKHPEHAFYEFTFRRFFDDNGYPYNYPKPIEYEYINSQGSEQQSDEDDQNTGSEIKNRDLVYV

LIM domain kinase 2 = LIM domain kinase 2 (Homo sapiens, UniProt P53671)
Chain of LIM domain kinase 2 (P53671 whole entry, the tested form may be a part): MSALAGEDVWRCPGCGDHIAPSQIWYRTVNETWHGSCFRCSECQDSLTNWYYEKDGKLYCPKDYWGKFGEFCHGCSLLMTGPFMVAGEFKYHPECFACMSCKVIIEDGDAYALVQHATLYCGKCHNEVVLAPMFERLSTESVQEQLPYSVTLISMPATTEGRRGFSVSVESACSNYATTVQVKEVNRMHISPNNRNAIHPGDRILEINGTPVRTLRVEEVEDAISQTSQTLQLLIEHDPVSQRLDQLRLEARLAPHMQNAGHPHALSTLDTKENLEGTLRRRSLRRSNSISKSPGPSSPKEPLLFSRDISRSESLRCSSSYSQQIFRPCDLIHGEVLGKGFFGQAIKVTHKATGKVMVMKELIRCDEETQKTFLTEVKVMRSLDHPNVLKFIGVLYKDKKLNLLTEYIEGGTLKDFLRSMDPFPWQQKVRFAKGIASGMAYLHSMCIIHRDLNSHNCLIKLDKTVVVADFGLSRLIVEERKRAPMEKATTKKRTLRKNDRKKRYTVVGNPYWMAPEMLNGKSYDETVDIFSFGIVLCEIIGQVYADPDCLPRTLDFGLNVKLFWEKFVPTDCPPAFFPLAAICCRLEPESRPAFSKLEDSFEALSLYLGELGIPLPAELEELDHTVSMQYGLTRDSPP

[9] = molecular target: Myosin light chain kinase, smooth muscle (Homo sapiens, UniProt Q15746)
Further: in the data inactive means no Kd found up to 30 µM.

Chain of Tyrosine-protein kinase ABL2 (P42684 whole entry): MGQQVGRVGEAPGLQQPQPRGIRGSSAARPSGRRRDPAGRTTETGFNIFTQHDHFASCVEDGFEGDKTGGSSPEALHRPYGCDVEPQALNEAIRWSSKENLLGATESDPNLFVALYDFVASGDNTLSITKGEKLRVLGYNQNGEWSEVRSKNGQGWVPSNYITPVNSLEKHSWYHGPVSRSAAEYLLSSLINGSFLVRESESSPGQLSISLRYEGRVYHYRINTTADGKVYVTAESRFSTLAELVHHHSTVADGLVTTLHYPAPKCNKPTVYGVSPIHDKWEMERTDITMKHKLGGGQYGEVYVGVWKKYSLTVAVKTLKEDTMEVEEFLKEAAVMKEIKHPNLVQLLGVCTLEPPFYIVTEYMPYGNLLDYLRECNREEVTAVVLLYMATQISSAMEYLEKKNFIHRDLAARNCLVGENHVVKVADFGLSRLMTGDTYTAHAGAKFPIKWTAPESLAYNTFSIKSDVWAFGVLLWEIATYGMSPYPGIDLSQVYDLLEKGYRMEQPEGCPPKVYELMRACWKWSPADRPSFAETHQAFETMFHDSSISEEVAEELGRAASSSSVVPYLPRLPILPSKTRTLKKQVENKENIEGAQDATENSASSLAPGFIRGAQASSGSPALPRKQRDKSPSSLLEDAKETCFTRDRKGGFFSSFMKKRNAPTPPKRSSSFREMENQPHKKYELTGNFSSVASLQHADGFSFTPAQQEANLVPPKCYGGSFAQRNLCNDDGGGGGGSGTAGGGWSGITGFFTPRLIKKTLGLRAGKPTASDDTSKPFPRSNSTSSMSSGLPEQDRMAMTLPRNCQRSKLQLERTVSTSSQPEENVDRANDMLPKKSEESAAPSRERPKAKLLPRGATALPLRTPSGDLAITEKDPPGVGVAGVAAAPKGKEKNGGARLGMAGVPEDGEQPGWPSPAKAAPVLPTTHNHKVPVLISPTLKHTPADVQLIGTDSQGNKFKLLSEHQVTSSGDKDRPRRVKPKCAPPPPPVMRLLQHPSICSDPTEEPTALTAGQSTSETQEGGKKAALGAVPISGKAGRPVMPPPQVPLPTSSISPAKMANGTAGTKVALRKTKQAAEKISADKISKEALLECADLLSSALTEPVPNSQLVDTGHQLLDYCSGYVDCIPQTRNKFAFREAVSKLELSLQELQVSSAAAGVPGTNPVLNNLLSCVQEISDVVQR

SMILES | Kd [1] | Kd [2] | Kd [3] | Kd [4] | Kd [5] | Kd [6] | Kd [7] | Kd [8] | Kd (LIM domain kinase 2) | Kd [9]
CN1CCC(CNc2ccc3ncc(-c4cccc(OC(F)(F)F)c4)n3n2)CC1 [SGI-1776] | > 30 µM (inactive) | > 30 µM (inactive) | > 30 µM (inactive) | > 30 µM (inactive) | > 30 µM (inactive) | > 30 µM (inactive) | > 30 µM (inactive) | > 30 µM (inactive) | > 30 µM (inactive) | > 30 µM (inactive)
CC[C@@H]1C(=O)N(C)c2cnc(Nc3ccc(C(=O)N[C@H]4CC[C@H](N5CCN(CC6CC6)CC5)CC4)cc3OC)nc2N1C(C)C [VOLASERTIB] | > 30 µM (inactive) | > 30 µM (inactive) | > 30 µM (inactive) | > 30 µM (inactive) | > 30 µM (inactive) | > 30 µM (inactive) | > 30 µM (inactive) | > 30 µM (inactive) | > 30 µM (inactive) | > 30 µM (inactive)
C[C@@H](c1ccc2nccn2c1)n1nnc2ncc(-c3cnn(C)c3)nc21 [SAVOLITINIB] | > 30 µM (inactive) | > 30 µM (inactive) | > 30 µM (inactive) | > 30 µM (inactive) | > 30 µM (inactive) | > 30 µM (inactive) | > 30 µM (inactive) | > 30 µM (inactive) | > 30 µM (inactive) | > 30 µM (inactive)
CCn1c(=O)c(-c2cc[nH]n2)cc2c(C)nc(N)nc21 [VOXTALISIB] | > 30 µM (inactive) | > 30 µM (inactive) | > 30 µM (inactive) | > 30 µM (inactive) | > 30 µM (inactive) | > 30 µM (inactive) | > 30 µM (inactive) | > 30 µM (inactive) | > 30 µM (inactive) | > 30 µM (inactive)
Cc1cc2c(F)c(Oc3ncnn4cc(OC[C@@H](C)OC(=O)[C@H](C)N)c(C)c34)ccc2[nH]1 [BRIVANIB ALANINATE] | > 30 µM (inactive) | > 30 µM (inactive) | > 30 µM (inactive) | > 30 µM (inactive) | > 30 µM (inactive) | > 30 µM (inactive) | > 30 µM (inactive) | > 30 µM (inactive) | > 30 µM (inactive) | > 30 µM (inactive)

Results, then the molecule that gave them:

Kd [1] | Kd [2] | Kd [3] | Kd [4] | Kd [5] | Kd [6] | Kd [7] | Kd [8] | Kd (LIM domain kinase 2) | Kd [9] | SMILES
> 30 µM (inactive) | > 30 µM (inactive) | > 30 µM (inactive) | > 30 µM (inactive) | > 30 µM (inactive) | > 30 µM (inactive) | > 30 µM (inactive) | 3.79 µM (active) | > 30 µM (inactive) | > 30 µM (inactive) | O=C(Nc1ccc(-c2ccnc(Nc3ccc(N4CCOCC4)cc3)n2)cc1)C1CCCN1 (stereo not given) [XL-019]
> 30 µM (inactive) | > 30 µM (inactive) | > 30 µM (inactive) | > 30 µM (inactive) | > 30 µM (inactive) | > 30 µM (inactive) | > 30 µM (inactive) | > 30 µM (inactive) | > 30 µM (inactive) | > 30 µM (inactive) | COc1cc(CCc2cc(NC(=O)c3ccc(N4C[C@@H](C)N[C@@H](C)C4)cc3)n[nH]2)cc(OC)c1 [AZD-4547]
> 30 µM (inactive) | > 30 µM (inactive) | > 30 µM (inactive) | > 30 µM (inactive) | > 30 µM (inactive) | > 30 µM (inactive) | 4.1 µM | > 30 µM (inactive) | > 30 µM (inactive) | > 30 µM (inactive) | Cc1cc([C@@H](C)Nc2ccccc2C(=O)O)c2nc(N3CCOCC3)cc(=O)n2c1 [AZD-6482]
> 30 µM (inactive) | > 30 µM (inactive) | > 30 µM (inactive) | > 30 µM (inactive) | > 30 µM (inactive) | > 30 µM (inactive) | > 30 µM (inactive) | > 30 µM (inactive) | > 30 µM (inactive) | > 30 µM (inactive) | COc1ccc(-c2ccc3c(N4CCOC[C@@H]4C)nc(N4CCOC[C@@H]4C)nc3n2)cc1CO [AZD-8055]
> 30 µM (inactive) | > 30 µM (inactive) | > 30 µM (inactive) | > 30 µM (inactive) | 0.293 µM (active) | > 30 µM (inactive) | > 30 µM (inactive) | > 30 µM (inactive) | > 30 µM (inactive) | > 30 µM (inactive) | CN(C)C(=O)c1cc2cnc(Nc3ccc(N4CCNCC4)cn3)nc2n1C1CCCC1 [RIBOCICLIB]
